Numbers after ± are expanded uncertainties.
Experiments:
[1] = 298.2 K; 101.33 kPa; Liquid; Vibrating tube method
[2] = refractive index (Na D-line) (dimensionless); conditions: 298.2 K; 101.33 kPa; Liquid; Abbe refractometer
[3] = Boiling temperature at pressure P; conditions: 101.33 kPa; Liquid

CCO [ethanol]
mass density [1]: 785.2 ± 0.2 kg/m3 | refractive index [2]: 1.3595 ± 0.0015 | Boiling temperature at pressure P [3]: 78.00 ± 0.4 °C

C1CC[C@H]2CCCC[C@@H]2C1 [trans-decahydronaphthalene]
mass density [1]: 868.25 ± 0.15 kg/m3 | refractive index [2]: 1.4682 ± 0.0016 | Boiling temperature at pressure P [3]: 187.20 ± 0.4 °C

— the NIST ThermoML archive (doi:10.1016/j.fluid.2006.01.024)
